Assay results: patent US20260265248A1, “NOVEL PD-L1 INHIBITORS” (AFFIRMA BIOTECH S. L., priority 2023, published 2026)

The compounds below were run against T1, PD-1/PD-L1 (Homo sapiens, UniProt Q9NZQ7) (assay: PD1-PDL1 HTRF assay). Details: PD-1/PD-L1 homogenous time-resolved fluorescence (HTRF) binding assay; Tag1-PDL1 5 nM, Tag2-PD1 50 nM.
T1 construct: purchased CisBio
Outline: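 Compound (8 concentrations) was preincubated 15 min at room temperature with Tag1-PD-L1 and Tag2-PD-1, added as 5 nM and 50 nM solutions. Eu-labelled anti-Tag1 and XL665-labelled anti-Tag2 were then added for 1 h, and the 665/620 nm ratio (×10^4; excitation 320 nm) was fitted to the Hill equation for IC50.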

T1 sequence (Q9NZQ7 19-238 limits assumed): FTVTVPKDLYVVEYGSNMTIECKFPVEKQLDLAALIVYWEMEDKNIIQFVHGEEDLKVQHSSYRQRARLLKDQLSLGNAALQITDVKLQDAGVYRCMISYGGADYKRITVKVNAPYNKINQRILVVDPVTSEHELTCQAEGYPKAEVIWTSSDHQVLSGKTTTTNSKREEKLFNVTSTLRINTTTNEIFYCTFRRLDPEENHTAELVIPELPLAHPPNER

| SMILES | IC50 [nM] |
| --- | --- |
| Cc1c(-c2ccc(CNCCO)cc2)cccc1-c1cccc(-c2ccn3nc(CNC[C@@H]4CCC(=O)N4)nc3c2)c1C [Example 102, (S)-5-((((7-(4″-(((2-hydroxyethyl)amino)methyl)-2,2′-dimethyl-[1,1′:3′,1″-terphenyl]-3-yl)-[1,2,4]triazolo[1,5-a]pyridin-2-yl)methyl)amino)methyl) pyrrolidin-2-one] | 10 to 100 |
| Cc1c(NC(=O)c2ccc(CNCCO)cc2)cccc1-c1cccc(-c2ccn3nc(CNC[C@@H]4CCC(=O)N4)nc3c2)c1C [Example 103, (S)—N-(2,2′-dimethyl-3′-(2-((((5-oxopyrrolidin-2-yl)methyl)amino)methyl)-[1,2,4]triazolo[1,5-a]pyridin-7-yl)-[1,1′-biphenyl]-3-yl)-4-(((2-hydroxyethyl)amino)methyl)benzamide] | 100 to 1000 |
| OCCNCc1ccc(-c2cccc(-c3cccc(-c4ccn5nc(CNCCO)nc5c4)c3Cl)c2Cl)cc1 [Example 104, 2-(((2′,2″-dichloro-3″-(2-(((2-hydroxyethyl)amino)methyl)-[1,2,4]triazolo[1,5-a]pyridin-7-yl)-[1,1′:3′,1″-terphenyl]-4-yl)methyl)amino)ethan-1-ol] | ≤ 10 |
| O=C1CC[C@@H](CNCc2ccc(-c3cccc(-c4cccc(-c5ccn6nc(CNC[C@@H]7CCC(=O)N7)nc6c5)c4Cl)c3Cl)cc2)N1 [Example 105, (S)-5-((((21,2″-dichloro-3″-(2-(((((S)-5-oxopyrrolidin-2-yl)methyl)amino)methyl)-[1,2,4]triazolo[1,5-α]pyridin-7-yl)-[1,1′:3′,1″-terphenyl]-4-yl)methyl)amino)methyl)pyrrolidin-2-one] | ≤ 10 |
| CC(C)(CO)NCc1ccc(-c2cccc(-c3cccc(-c4ccn5nc(CNC(C)(C)CO)nc5c4)c3Cl)c2Cl)cc1 [Example 106, 2-(((21,2″-dichloro-3″-(2-(((1-hydroxy-2-methylpropan-2-yl)amino)methyl)-[1,2,4]triazolo[1,5-a]pyridin-7-yl)-[1,1′:3′,1″-terphenyl]-4-yl)methyl)amino)-2-methylpropan-1-ol] | ≤ 10 |
| CC(=O)NCCNCc1ccc(-c2cccc(-c3cccc(-c4ccn5nc(CNCCNC(C)=O)nc5c4)c3Cl)c2Cl)cc1 [Example 109, N-(2-(((7-(4″-(((2-acetamidoethyl)amino)methyl)-2,2′-dichloro-[1,1′:3′,1″-terphenyl]-3-yl)-[1,2,4]triazolo[1,5-a]pyridin-2-yl)methyl)amino)ethyl)acetamide] | ≤ 10 |
| OCCCNCc1ccc(-c2cccc(-c3cccc(-c4ccn5nc(CNCCCO)nc5c4)c3Cl)c2Cl)cc1 [Example 111, 3-(((2′,2″-dichloro-3″-(2-(((3-hydroxypropyl)amino)methyl)-[1,2,4]triazolo[1,5-a]pyridin-7-yl)-[1,1′:3′,1″-terphenyl]-4-yl)methyl)amino)propan-1-ol] | ≤ 10 |
| CC(C)(CO)NCc1ccc(-c2cccc(-c3cccc(-c4ccn5nc(CNCCO)nc5c4)c3Cl)c2Cl)cc1 [Example 112, 2-(((2′,2″-dichloro-3″-(2-(((2-hydroxyethyl)amino)methyl)-[1,2,4]triazolo[1,5-a]pyridin-7-yl)-[1,1′:3′,1″-terphenyl]-4-yl)methyl)amino)-2-methylpropan-1-ol] | 10 to 100 |
| OCCNCc1nc2cc(-c3cccc(-c4cccc(-c5ccc(CN6CCC[C@H]6CO)cc5)c4Cl)c3Cl)ccn2n1 [Example 113, (S)-2-(((7-(2,2′-dichloro-4″-((2-(hydroxymethyl)pyrrolidin-1-yl)methyl)-[1,11:31,1″-terphenyl]-3-yl)-[1,2,4]triazolo[1,5-a]pyridin-2-yl)methyl)amino)ethan-1-ol] | ≤ 10 |
| OCCNCc1nc2cc(-c3cccc(-c4cccc(-c5ccc(CN6CCC[C@@H]6CO)cc5)c4Cl)c3Cl)ccn2n1 [Example 114, (R)-2-(((7-(2,2′-dichloro-4″-((2-(hydroxymethyl)pyrrolidin-1-yl)methyl)-[1,11:3′,1″-terphenyl]-3-yl)-[1,2,4]triazolo [1,5-a]pyridin-2-yl)methyl)amino)ethan-1-ol] | ≤ 10 |
| OCCCNCc1ccc(-c2cccc(-c3cccc(-c4ccn5nc(CNCCO)nc5c4)c3Cl)c2Cl)cc1 [Example 115, 3-(((21,2″-dichloro-3″-(2-(((2-hydroxyethyl)amino)methyl)-[1,2,4]triazolo[1,5-a]pyridin-7-yl)-[1,11:31,1″-terphenyl]-4-yl)methyl)amino)propan-1-ol] | ≤ 10 |
| CC(C)(CO)NCc1nc2cc(-c3cccc(-c4cccc(-c5ccc(CNCCO)cc5)c4Cl)c3Cl)ccn2n1 [Example 116, 2-(((7-(2,2′-dichloro-4″-(((2-hydroxyethyl)amino)methyl)-[1,1′:31,1″-terphenyl]-3-yl)-[1,2,4]triazolo[1,5-a]pyridin-2-yl)methyl)amino)-2-methylpropan-1-ol] | ≤ 10 |
